Source: paper PMC12635197, “Discovery of first-in-class inhibitors of the TRF1:TIN2 protein:protein interaction by fragment screening” (Scientific Reports, 2025)
pIC50: −log10 of the molar value.

Target: T1, TRF1TRFH:TIN2-FAM interaction (Homo sapiens, UniProt P54274)
T1 construct: encoding residues 47–268, UniProt identifier P54274-1; His6-MBP (TEV-cleavable) (N, cleaved yes); made in house; host or cells: E. coli BL21-CodonPlus(DE3)-RIL (TRF1TRFH); probe peptide from Pepceuticals
T1 sequence (P54274 47-268): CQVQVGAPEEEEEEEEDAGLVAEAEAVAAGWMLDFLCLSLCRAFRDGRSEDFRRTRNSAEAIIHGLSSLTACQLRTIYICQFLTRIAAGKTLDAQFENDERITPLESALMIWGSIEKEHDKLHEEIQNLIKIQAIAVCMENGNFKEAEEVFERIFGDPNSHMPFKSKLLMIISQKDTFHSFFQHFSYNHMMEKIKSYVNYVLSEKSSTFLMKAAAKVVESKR
Test: Fluorescence polarisation (FP) competition assay, TIN2-FAM displacement
Type: binding
Conditions: 0.6 µM TRF1TRFH, 25 nM TIN2-FAM; mean of three independent experiments, 95% CI in parentheses
Experimental: To complement the biophysical R2KD assay, we developed a fluorescence polarisation (FP) competition assay based on a TIN2TBM peptide labelled with an N-terminal 5(6)-carboxyfluorescein (6-FAM) fluorophore. […] The NMR hit analogues were then titrated against constant concentrations of TRF1TRFH and TIN2-FAM (0.6 µM and 25 nM, respectively).
A TIN2TBM peptide was obtained from Pepceuticals with a 5(6)-carboxyfluorescein (FAM) fluorophore added to the N-terminus for fluorescence studies. To determine the assay window for the FP assay, the TIN2-FAM probe was prepared as a 16-µM stock in aqueous buffer and titrated from 0 to 400 nM against either a constant concentration of TRF1TRFH (0.5 µM in FP buffer) or FP buffer alone (25 mM HEPES-NaOH pH 7.5, 100 mM NaCl, 1 mM TCEP, 0.05% w/v CHAPS). Samples were prepared to a final volume of 10 µL in Packard Proxiplate 384 F plus plates; plates were incubated in darkness at room temperature for 1 h prior to measuring fluorescence intensities and calculating FP values, using a BMG Labtech PHERAstar FSX plate reader with an FP 485 520 520 optic module. A settling time of 0.3 s was used, and the number of flashes was set to 200 for FP measurements. For each plate, a target mP of 35 was set and the gain adjusted on the TIN2-FAM probe control well minus protein.
For the FP competition assay, the unlabelled compounds (from 50-mM DMSO stocks) were first dispensed in duplicate into wells of a Proxiplate 384 F Plus plate using an Echo 550 acoustic liquid handler to give a 13-point concentration range from 0.2 to 500 µM. Wells were then backfilled to 250 nL with DMSO before the addition of 5 µL of 2x TRF1TRFH (0.6 µM final concentration) and 4.75 µL 2x TIN2-FAM (25 nM final concentration). Plates were spun and sealed prior to incubation for 1 h in darkness. FP measurements were then carried out as described above.

Structure (SMILES): COc1cc(COc2ccc(S(=O)(=O)[O-])c3ccccc23)cc(OC)c1.[Na+] [Compound 40]
- pIC50: 4.17
